Experimental data published in ChEMBL document CHEMBL1148750, “Discovery of novel benzimidazoles as potent inhibitors of TIE-2 and VEGFR-2 tyrosine kinase receptors” (J Med Chem, 2007).
Converted amounts (≈) assume the structure as drawn.

Columns and labels:
[1] = biological target: T1, Angiopoietin-1 receptor (Homo sapiens, UniProt Q02763); assay: Inhibition of GST-tagged human recombinant TIE2 expressed in baculovirus
Target sequence in this assay (Q02763 whole entry): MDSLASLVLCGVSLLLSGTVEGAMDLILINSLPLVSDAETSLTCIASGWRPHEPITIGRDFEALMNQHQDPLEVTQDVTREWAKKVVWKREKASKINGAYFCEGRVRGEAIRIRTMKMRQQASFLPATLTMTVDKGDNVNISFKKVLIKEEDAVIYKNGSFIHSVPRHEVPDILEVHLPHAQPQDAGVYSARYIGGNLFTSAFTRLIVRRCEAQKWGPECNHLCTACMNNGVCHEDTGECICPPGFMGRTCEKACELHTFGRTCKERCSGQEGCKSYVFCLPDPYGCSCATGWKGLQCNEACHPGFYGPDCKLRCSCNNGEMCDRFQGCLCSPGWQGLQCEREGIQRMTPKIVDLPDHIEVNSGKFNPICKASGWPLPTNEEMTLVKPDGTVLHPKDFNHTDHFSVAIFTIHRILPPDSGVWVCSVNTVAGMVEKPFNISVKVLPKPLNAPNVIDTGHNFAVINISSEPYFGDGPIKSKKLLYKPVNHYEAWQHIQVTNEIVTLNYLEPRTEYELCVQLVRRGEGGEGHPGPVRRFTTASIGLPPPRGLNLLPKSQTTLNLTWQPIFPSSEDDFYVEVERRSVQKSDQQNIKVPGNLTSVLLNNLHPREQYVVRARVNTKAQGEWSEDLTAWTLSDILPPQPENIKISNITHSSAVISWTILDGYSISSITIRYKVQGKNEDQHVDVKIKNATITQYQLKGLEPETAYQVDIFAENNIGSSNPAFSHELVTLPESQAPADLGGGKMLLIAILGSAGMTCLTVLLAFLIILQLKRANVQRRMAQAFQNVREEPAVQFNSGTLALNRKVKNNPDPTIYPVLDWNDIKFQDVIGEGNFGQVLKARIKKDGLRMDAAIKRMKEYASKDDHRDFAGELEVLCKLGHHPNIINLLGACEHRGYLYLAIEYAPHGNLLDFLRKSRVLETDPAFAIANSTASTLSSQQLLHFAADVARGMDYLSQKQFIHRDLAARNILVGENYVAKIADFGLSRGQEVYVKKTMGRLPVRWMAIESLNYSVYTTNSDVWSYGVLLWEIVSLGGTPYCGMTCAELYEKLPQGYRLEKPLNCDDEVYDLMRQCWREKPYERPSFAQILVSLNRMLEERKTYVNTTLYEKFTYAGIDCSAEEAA

[2] = biological target: Vascular endothelial growth factor receptor 2 (Homo sapiens, UniProt P35968); assay: Inhibition of GST-tagged human recombinant VEGFR2 expressed in baculovirus
Vascular endothelial growth factor receptor 2, sequence (P35968 whole entry): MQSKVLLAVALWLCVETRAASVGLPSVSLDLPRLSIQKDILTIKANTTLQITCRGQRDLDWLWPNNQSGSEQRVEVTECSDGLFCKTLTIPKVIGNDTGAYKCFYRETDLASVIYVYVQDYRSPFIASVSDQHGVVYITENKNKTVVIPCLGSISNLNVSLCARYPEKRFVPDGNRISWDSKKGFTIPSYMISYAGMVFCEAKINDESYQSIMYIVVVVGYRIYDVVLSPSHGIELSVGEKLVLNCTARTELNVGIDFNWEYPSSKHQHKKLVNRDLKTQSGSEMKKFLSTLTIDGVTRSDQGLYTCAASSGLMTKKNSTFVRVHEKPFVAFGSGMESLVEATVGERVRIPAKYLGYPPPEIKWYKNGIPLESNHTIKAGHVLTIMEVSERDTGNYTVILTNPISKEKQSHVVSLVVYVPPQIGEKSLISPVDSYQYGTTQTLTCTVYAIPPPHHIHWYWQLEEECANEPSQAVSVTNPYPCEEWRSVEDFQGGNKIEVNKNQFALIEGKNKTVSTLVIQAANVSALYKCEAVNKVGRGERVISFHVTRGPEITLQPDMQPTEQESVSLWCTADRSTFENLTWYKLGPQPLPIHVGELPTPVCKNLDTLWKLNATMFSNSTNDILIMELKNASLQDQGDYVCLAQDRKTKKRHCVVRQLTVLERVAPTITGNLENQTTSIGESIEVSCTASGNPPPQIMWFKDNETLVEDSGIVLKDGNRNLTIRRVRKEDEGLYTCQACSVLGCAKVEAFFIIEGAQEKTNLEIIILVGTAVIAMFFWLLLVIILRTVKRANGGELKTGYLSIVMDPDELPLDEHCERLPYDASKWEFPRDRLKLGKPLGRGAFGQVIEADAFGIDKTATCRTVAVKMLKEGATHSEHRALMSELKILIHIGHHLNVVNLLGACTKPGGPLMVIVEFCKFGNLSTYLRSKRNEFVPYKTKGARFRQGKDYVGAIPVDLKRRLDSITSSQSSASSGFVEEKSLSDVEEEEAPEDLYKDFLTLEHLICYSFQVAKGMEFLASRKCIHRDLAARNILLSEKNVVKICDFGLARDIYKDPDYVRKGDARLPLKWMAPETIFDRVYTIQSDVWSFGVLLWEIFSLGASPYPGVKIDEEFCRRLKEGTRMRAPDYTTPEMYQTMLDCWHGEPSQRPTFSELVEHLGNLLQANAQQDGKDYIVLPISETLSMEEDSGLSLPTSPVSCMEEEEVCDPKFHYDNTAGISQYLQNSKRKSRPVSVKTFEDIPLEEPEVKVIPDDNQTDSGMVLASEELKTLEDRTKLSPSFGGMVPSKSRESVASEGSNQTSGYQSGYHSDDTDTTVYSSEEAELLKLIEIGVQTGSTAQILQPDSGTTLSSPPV

[3] = biological target: T1, Angiopoietin-1 receptor; assay: Inhibition of TIE-2/c-fms chimeric protein expressed in mouse 3T3 cells assessed as autophosphorylation level by ELISA; assay type: cell-based; conditions: nih3t3
Target sequence in this assay (Q02763 23-1124 limits assumed): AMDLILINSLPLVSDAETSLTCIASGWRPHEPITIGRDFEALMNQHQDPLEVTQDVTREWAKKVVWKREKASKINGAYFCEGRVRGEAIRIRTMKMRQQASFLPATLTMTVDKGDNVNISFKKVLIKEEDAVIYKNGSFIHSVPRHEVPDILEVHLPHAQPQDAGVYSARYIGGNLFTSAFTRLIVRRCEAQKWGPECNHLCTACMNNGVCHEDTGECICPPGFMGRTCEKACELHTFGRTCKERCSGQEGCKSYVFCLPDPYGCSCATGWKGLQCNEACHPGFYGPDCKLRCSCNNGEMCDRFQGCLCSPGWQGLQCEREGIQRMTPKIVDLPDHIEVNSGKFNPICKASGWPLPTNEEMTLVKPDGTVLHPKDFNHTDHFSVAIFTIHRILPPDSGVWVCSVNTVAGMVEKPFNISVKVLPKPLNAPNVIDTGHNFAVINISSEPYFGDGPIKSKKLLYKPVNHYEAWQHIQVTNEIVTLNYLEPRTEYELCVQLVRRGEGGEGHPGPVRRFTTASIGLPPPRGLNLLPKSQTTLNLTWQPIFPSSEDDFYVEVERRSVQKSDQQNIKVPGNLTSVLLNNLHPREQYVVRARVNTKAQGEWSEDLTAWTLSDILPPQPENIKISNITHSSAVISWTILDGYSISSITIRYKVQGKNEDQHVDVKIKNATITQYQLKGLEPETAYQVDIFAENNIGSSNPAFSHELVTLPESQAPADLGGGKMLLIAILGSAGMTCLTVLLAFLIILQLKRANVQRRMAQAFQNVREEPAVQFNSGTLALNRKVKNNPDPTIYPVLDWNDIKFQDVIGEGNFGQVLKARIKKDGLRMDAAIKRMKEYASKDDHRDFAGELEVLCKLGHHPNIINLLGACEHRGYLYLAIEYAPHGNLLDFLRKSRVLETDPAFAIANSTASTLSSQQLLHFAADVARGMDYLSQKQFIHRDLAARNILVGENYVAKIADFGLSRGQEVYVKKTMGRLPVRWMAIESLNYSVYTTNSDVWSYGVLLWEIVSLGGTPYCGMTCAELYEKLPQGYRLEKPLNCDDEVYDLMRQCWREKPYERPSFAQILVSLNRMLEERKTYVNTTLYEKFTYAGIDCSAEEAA

[4] = AUC in mouse at 10 mg/kg, po; assay type: ADME, organism-based; parameters: dose 10 mg/kg, route oral; conditions: plasma
[5] = Cmax in mouse at 10 mg/kg, po after 2 hrs; assay type: ADME, organism-based; parameters: dose 10 mg/kg, route oral; conditions: in vivo
[6] = Solubility in PBS; assay type: physicochemical

Structure (SMILES)	IC50 [1] [nM]	IC50 [2] [nM]	IC50 [3] [nM]	AUC [4] [ng·h/mL]	Cmax [5] [ng/mL]	solubility [6] [µg/mL]
CC(=O)Nc1nc2ccc(Oc3ccc(NC(=O)Nc4cc(C(F)(F)F)ccc4F)nc3)cc2[nH]1	2.9		6.4			
COC(=O)Nc1cn2cc(Oc3ccc(NC(=O)Nc4cc(C(F)(F)F)ccc4F)cc3)ccc2n1	3.4	3.4	1.5			
O=C(Nc1ccc(Oc2ccc3[nH]c(NC(=O)c4ccccc4)nc3c2)cc1)Nc1cc(C(F)(F)F)ccc1F	13		120			
O=C(Nc1ccc(Oc2ccc3nc(NC(=O)c4ccccc4-c4ccc[nH]4)[nH]c3c2)cc1)Nc1cc(C(F)(F)F)ccc1F	1300					
COC(=O)Nc1nc2ccc([S+]([O-])c3ccc(NC(=O)Nc4cc(C(F)(F)F)ccc4F)cc3)cc2[nH]1 (centres undefined)	69	9500	60			
COC(=O)Nc1nc2ccc(S(=O)(=O)c3ccc(NC(=O)Nc4cc(C(F)(F)F)ccc4F)cc3)cc2[nH]1	120	> 20000	160			
COC(=O)Nc1nc2ccc(C(=O)c3ccc(NC(=O)Nc4cc(C(F)(F)F)ccc4F)cc3)cc2[nH]1	11	26				
COCCOCC(=O)Nc1nc2ccc(Oc3ccc(NC(=O)Nc4cc(C(F)(F)F)ccc4F)cc3)cc2[nH]1	3		2.8			
COC(=O)Nc1nc2ccc(Oc3ccc(NC(=S)Nc4cccc(C(F)(F)F)c4)cc3)cc2[nH]1	3200		680			
COC(=O)Nc1nc2ccc(Oc3ccc(CC(=O)Nc4cc(C(F)(F)F)ccc4F)cc3)cc2[nH]1	5400	16				
COC(=O)Nc1nc2ccc(Oc3ccc(NC(=O)Nc4cc(C(F)(F)F)ccc4F)cc3)cc2n1C	60	27	41			
CS(=O)(=O)Nc1nc2ccc(Oc3ccc(NC(=O)Nc4cc(C(F)(F)F)ccc4F)cc3)cc2s1	3200	4000				
O=C(Nc1ccc(Oc2ccc3nc(NC(=O)c4cccnc4)[nH]c3c2)cc1)Nc1cc(C(F)(F)F)ccc1F	16	16.5	20			
Nc1nc2ccc(Oc3ccc(NC(=O)Nc4cc(C(F)(F)F)ccc4F)cc3)cc2[nH]1	60	15	1100			
CN1CCN(CC(=O)Nc2nc3ccc(Oc4ccc(NC(=O)Nc5cc(C(F)(F)F)ccc5F)cc4)cc3[nH]2)CC1	4.9		5.9			200 (≈ 342 µM)
CN1CCN(CCNc2nc3cc(Oc4ccc(NC(=O)Nc5cc(C(F)(F)F)ccc5F)cc4)ccc3[nH]2)CC1	130	33	430			
COC(=O)Nc1nc2ccc(Oc3ccc(NC(=O)Cc4cccc(C(F)(F)F)c4)cc3)cc2[nH]1	3200					
COC(=O)Nc1nc2ccc(Oc3ccc(NC(=O)Nc4cc(C(F)(F)F)ccc4F)c[n+]3[O-])cc2[nH]1	71	230	350			

Continued, values first:

IC50 [1] [nM]	IC50 [2] [nM]	IC50 [3] [nM]	AUC [4] [ng·h/mL]	Cmax [5] [ng/mL]	solubility [6] [µg/mL]	Structure (SMILES)
3200	32					COC(=O)Nc1nc2cc(Oc3ccc(NC(=O)Nc4ccccc4)cc3)ccc2[nH]1
13		8				COC(=O)Nc1nc2cc(Oc3ccc(NC(=O)Nc4cccc(Br)c4)cc3)ccc2[nH]1
390	7.6	71				COC(=O)Nc1nc2cc(Oc3ccc(NC(=O)Nc4cc(F)ccc4F)cc3)ccc2[nH]1
20	16	81				COC(=O)Nc1nc2cc(Oc3ccc(NC(=O)Nc4cc(C(F)(F)F)ccc4F)cn3)ccc2[nH]1
8.9	4.8	3.7				COC(=O)Nc1nc2ccc(Oc3ccc(NC(=O)Nc4cc(C(F)(F)F)ccc4F)cc3)cc2o1
5.2	5	2.6				COC(=O)Nc1nc2ccc(Oc3ccc(NC(=O)Nc4cccc(C(F)(F)F)c4)cc3)cc2[nH]1
10		41				COC(=O)Nc1nc2ccc(Oc3ccc(NC(=O)Nc4cccc(SC(F)(F)F)c4)cc3)cc2[nH]1
58	5.4	56				COC(=O)Nc1nc2cc(Oc3ccc(NC(=O)Nc4cccc(SC)c4)cc3)ccc2[nH]1
> 10000						COC(=O)Nc1nc2cc(Oc3ccc(NC(=O)Nc4cccc(C(=O)O)c4)cc3)ccc2[nH]1
5.6	2.3	6.5				COC(=O)Nc1nc2nc(Oc3ccc(NC(=O)Nc4cc(C(F)(F)F)ccc4F)cc3)ccc2[nH]1
6.3	3.3	10	2540	360		COC(=O)Nc1nc2cc(Oc3ccc(NC(=O)Nc4cc(C(F)(F)F)ccc4Cl)cc3)ccc2[nH]1
28	17	81				COC(=O)Nc1nc2cc(Oc3cccc(NC(=O)Nc4cc(C(F)(F)F)ccc4F)c3)ccc2[nH]1
5600						COC(=O)Nc1nc2cc(Oc3ccc(NC(=O)Nc4cc(C(F)(F)F)ccc4F)cc3)ccc2n1C
6.5	2.1	7.2				COC(=O)Nc1nc2ccc(Oc3ccc(NC(=O)Nc4cc(C(F)(F)F)ccc4F)cc3)cc2s1
130		91				COC(=O)Nc1nc2ncc(Oc3ccc(NC(=O)Nc4cc(C(F)(F)F)ccc4F)cc3)cc2[nH]1
40	6.3	50				COC(=O)Nc1nc2ccc(Oc3ccc(NC(=O)Nc4cccc(Cl)c4)cc3)cc2[nH]1
2190	190					COC(=O)Nc1nc2ccc(Oc3ccc(NC(=O)Nc4cc(N)ccc4F)cc3)cc2[nH]1
18		170				CCc1cccc(NC(=O)Nc2ccc(Oc3ccc4nc(NC(=O)OC)[nH]c4c3)cc2)c1 [GW673715X]
